Test results reported in patent publication US11660328B2, “GLP-2 analogs and peptibodies for administration before, during or after surgery” (TAKEDA PHARMACEUTICAL COMPANY LIMITED, priority 2017, dated 2023).

Test system: small intestine
Assay: Histology study of villi length and crypt depth (H&E sections, imagescope)
Assay type: in vivo, female CD-1 mice
Settings: after administration vs without treatment, FIGS. 1-3; for villus height: small intestine
Protocol: Various doses of GLP-2 peptibody B264 were analyzed to assess the pharmacodynamic plateau, with the primary endpoint a measurement of the small intestinal weight relative to the total body weight and a histology study of the length of villi. 11 groups of six female CD-1 mice each were formed. [table] For histology, four micron paraffin sections were prepared for H&E and Ki67 IHC staining. After whole slide scanning, an imagescope was used to measure villi length and crypt depth, and to analyze Ki67. The antibody against Ki67 is a rabbit antibody sold by Adcam®, catalog number ab 616667. The antibody was used at a working concentration of 1:100 and was detected using a Leica® Refine Kit. […] See, e.g., Example 13 of U.S. Provisional Application No. 62/548,601, filed Aug. 22, 2017 for more data and examples with respect to GLP-2 peptibody B264, GLP-2 peptibody […], and a GLP-2[[…]] peptide.

| Compound | crypt depth in the small intestine | villus height |
| --- | --- | --- |
| CC[C@H](C)[C@H](NC(=O)[C@H](Cc1ccccc1)NC(=O)[C@H](CC(=O)O)NC(=O)[C@H](CCCNC(=N)N)NC(=O)[C@H](C)NC(=O)[C@H](C)NC(=O)[C@H](CC(C)C)NC(=O)[C@H](CC(N)=O)NC(=O)[C@H](CC(=O)O)NC(=O)[C@H](CC(C)C)NC(=O)[C@@H](NC(=O)[C@@H](NC(=O)[C@H](CC(N)=O)NC(=O)[C@H](CCSC)NC(=O)[C@H](CCC(=O)O)NC(=O)[C@H](CC(=O)O)NC(=O)[C@H](CO)NC(=O)[C@H](Cc1ccccc1)NC(=O)[C@H](CO)NC(=O)CNC(=O)[C@H](CC(=O)O)NC(=O)CNC(=O)[C@@H](N)Cc1c[nH]cn1)[C@@H](C)O)[C@@H](C)CC)C(=O)N[C@@H](CC(N)=O)C(=O)N[C@@H](Cc1c[nH]c2ccccc12)C(=O)N[C@@H](CC(C)C)C(=O)N[C@H](C(=O)N[C@@H](CCC(N)=O)C(=O)N[C@H](C(=O)N[C@@H](CCCCN)C(=O)N[C@H](C(=O)N[C@H](C(=O)N[C@@H](CC(=O)O)C(=O)O)[C@@H](C)O)[C@@H](C)CC)[C@@H](C)O)[C@@H](C)CC [h(Gly2)GLP-2, teduglutide, reference compound] | increased crypt depth | increased villus height |
| GLP-2 peptibody K274: GLP-2 peptibody having the amino acid sequence of SEQ ID NO: 4 (GLP-2[A2G]-linker-IgG1 Fc fusion) | increased crypt depth | increased villus height |
